Results on 10 compounds are retold here after ChEMBL document CHEMBL5154644, “Design, Synthesis, and Structure-Activity Relationship Optimization of Pyrazolopyrimidine Amide Inhibitors of Phosphoinositide 3-Kinase γ (PI3Kγ)” (J Med Chem, 2022).

Some results are limits rather than exact numbers.

The nature of series [1]: Hepatic clearance in Sprague-Dawley rat by LC-MS/MS analysis. It counts as ADME. The following applies: in vivo.
The nature of series [2]: Metabolic stability in human hepatocytes assessed as intrinsic clearance per 10^6 cells at 0.5 uM by LC-MS/MS analysis. In kind it is ADME, cell-based, Hepatocyte. The conditions noted are these: read-out: CLH.
The target of series [3] is Phosphatidylinositol 4,5-bisphosphate 3-kinase catalytic subunit alpha isoform (Homo sapiens, UniProt P42336). As to the kind of experiment: Inhibition of PI3Kalpha (unknown origin) using PIP2 as substrate preincubated for 1 hr followed by substrate addition and measured after 60 mins in presence of ATP by ADP-glo assay.
Series [4] is described as follows: Metabolic stability in rat hepatocyte assessed as intrinsic clearance per 10^8 cells at 0.5 uM by LC-MS/MS analysis. The following applies: hepatocytes. It counts as ADME, cell-based.
Series [5] deals with T1, Phosphatidylinositol 4,5-bisphosphate 3-kinase catalytic subunit delta isoform (Homo sapiens, UniProt O00329).
T1 sequence (O00329 whole entry): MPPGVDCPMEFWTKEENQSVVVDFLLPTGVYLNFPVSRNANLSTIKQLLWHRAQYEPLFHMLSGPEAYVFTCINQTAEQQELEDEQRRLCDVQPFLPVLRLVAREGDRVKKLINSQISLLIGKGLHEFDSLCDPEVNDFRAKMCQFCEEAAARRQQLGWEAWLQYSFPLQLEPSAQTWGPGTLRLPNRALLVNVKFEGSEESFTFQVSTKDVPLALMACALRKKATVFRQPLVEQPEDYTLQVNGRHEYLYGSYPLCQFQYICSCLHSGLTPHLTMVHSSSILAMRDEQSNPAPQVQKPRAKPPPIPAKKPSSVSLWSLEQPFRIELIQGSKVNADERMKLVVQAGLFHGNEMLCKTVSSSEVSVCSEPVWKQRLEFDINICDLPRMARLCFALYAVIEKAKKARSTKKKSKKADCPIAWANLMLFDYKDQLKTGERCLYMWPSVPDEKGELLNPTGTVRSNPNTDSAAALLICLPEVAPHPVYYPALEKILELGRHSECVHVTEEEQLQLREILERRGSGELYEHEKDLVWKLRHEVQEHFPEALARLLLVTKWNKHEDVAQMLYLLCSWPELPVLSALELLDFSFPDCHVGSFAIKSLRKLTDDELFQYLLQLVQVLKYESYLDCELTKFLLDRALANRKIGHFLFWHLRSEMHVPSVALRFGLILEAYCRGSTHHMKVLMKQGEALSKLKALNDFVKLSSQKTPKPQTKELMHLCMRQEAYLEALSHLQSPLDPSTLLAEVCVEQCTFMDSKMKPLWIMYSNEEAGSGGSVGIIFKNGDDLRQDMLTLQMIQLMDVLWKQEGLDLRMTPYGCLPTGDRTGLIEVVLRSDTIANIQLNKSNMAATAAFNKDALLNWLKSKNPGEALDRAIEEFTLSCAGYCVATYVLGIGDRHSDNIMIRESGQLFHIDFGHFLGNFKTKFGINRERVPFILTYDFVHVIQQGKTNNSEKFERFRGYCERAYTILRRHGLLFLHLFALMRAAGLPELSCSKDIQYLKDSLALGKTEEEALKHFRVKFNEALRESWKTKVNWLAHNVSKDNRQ
As to the kind of experiment: Inhibition of PI3Kdelta (unknown origin) using PIP2 as substrate preincubated for 1 hr followed by substrate addition and measured after 60 mins in presence of ATP by ADP-glo assay. Background: In ADP-Glo the light output rises with the ADP produced.

Series [6] concerns the target T2, Phosphatidylinositol 4,5-bisphosphate 3-kinase catalytic subunit gamma isoform (Homo sapiens, UniProt P48736). As to the kind of experiment: Inhibition of PI3Kgamma (unknown origin) in […] stimulated human THP-1 cells assessed as reduction in Akt phosphorylation level at Ser473 residue preincubated for 60 mins followed by rhMCP-1 stimulation and measured after 2 mins by AlphaLisa assay. It counts as cell-based. For orientation: Alpha assays give light when donor and acceptor beads are brought close together.

Series [7] concerns the target T2, Phosphatidylinositol 4,5-bisphosphate 3-kinase catalytic subunit gamma isoform. As to the kind of experiment: Inhibition of PI3Kgamma (unknown origin) using PIP2 as substrate preincubated for 1 hr followed by substrate addition and measured after 60 mins in presence of ATP by ADP-glo assay.
The species named for series [8] is Homo sapiens. As to the kind of experiment: Selectivity ratio of IC50 for inhibition of PI3Kalpha (unknown origin) to IC50 for inhibition of PI3Kgamma (unknown origin).
For series [9], the species on record is Homo sapiens. As to the kind of experiment: Selectivity ratio of IC50 for inhibition of PI3Kdelta (unknown origin) to IC50 for inhibition of PI3Kgamma (unknown origin).
The target in the next series is CYP3A4 (Homo sapiens, UniProt P08684). As to the kind of experiment: in vitro. The following applies: human liver microsomes, probe midazolam. For orientation: Liver microsomes are a subcellular fraction often used to study metabolism.
CYP3A4, sequence (P08684 whole entry): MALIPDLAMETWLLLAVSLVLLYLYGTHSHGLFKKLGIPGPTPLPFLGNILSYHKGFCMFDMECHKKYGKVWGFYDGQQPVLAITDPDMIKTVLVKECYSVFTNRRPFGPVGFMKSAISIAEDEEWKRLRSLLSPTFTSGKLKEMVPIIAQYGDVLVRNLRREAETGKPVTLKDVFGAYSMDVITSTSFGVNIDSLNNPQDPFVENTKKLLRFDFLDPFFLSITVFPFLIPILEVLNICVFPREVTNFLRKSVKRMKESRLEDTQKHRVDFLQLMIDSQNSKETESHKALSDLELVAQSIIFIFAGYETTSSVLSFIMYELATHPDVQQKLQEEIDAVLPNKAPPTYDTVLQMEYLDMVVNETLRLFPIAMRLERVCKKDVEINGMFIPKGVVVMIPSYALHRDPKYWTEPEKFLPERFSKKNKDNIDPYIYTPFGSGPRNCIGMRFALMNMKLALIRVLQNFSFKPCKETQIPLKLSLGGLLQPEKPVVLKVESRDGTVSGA

T2 sequence (P48736 whole entry, canonical isoform): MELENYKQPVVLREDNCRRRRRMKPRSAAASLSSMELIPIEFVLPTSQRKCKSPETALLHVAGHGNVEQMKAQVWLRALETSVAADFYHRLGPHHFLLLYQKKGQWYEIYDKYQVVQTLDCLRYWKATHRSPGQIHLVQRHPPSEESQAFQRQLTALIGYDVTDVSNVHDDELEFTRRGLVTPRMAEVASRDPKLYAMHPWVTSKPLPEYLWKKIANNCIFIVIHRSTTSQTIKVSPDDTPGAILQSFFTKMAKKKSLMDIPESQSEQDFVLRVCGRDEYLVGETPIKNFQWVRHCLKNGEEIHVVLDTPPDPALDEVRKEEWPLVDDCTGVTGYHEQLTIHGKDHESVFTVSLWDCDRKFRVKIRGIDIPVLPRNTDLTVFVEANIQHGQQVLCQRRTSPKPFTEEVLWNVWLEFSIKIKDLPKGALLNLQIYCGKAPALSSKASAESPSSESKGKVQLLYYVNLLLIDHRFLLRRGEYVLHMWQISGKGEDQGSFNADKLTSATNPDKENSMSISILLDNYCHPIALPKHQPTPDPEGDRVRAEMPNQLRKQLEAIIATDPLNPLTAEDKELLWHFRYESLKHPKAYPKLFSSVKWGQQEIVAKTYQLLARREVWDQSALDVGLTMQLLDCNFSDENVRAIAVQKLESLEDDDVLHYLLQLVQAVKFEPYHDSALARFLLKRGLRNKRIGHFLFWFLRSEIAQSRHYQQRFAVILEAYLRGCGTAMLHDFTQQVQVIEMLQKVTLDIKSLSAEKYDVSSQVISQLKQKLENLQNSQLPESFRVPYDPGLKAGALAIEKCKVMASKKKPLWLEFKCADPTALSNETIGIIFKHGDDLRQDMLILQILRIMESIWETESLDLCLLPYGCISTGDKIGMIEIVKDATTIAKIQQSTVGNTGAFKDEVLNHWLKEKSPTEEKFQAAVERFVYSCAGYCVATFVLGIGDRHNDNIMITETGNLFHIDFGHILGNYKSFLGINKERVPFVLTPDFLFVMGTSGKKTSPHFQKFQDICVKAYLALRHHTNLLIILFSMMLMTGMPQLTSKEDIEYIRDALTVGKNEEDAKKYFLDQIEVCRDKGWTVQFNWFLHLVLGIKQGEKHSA
Phosphatidylinositol 4,5-bisphosphate 3-kinase catalytic subunit alpha isoform, sequence (P42336 whole entry, canonical isoform): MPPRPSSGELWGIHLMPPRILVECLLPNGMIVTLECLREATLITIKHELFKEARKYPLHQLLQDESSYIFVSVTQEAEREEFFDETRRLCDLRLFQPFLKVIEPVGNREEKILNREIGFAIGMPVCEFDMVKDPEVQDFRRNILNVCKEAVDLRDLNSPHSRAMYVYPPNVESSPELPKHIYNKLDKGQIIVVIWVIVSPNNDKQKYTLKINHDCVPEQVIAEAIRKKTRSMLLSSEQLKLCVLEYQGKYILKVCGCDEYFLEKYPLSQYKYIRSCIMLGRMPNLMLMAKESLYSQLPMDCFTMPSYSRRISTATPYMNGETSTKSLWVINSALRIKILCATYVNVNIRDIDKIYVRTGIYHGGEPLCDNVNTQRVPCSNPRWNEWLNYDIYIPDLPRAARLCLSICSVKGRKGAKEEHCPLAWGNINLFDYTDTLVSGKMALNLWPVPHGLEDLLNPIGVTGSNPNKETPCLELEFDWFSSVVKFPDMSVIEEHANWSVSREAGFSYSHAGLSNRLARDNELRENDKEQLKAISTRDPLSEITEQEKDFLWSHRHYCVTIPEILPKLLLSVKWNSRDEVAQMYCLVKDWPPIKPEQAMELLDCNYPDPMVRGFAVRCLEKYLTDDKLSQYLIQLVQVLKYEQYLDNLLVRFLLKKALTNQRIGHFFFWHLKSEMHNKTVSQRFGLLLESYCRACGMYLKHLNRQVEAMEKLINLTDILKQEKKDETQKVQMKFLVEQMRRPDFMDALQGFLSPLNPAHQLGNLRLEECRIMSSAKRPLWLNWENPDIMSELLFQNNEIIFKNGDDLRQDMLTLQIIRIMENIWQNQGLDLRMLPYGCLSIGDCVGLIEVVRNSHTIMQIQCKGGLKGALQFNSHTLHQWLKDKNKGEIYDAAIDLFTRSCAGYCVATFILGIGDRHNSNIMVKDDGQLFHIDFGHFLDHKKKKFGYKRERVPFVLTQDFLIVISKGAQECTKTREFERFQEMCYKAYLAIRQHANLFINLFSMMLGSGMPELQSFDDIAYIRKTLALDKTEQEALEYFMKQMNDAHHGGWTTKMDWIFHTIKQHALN
Description for CYP3A4: Time dependent inhibition of CYP3A4 in human liver microsomes at 10 uM using midazolam as substrate preincubated for 30 mins in presence of NADPH by LC/MS/MS analysis relative to control

Turning to `CC(C)S(=O)(=O)c1cc(-c2ccn3nc(N)c(C(=O)NC4CC4)c3n2)cc2c1C(=O)N([C@@H](C)C1CC1)C2`, the CLH in series [1] was 28.3 mL/min/kg. For the same compound, in [2], the hepatocyte CLint at 0.5 µM was found to be 2.43 µL/min/1e6 cells. Moreover, the values for the IC50 in series [3] and in series [5] were 952 nM and 714 nM, respectively. The hepatocyte intrinsic clearance in [4] is less than 1.2 µL/min.
Compound `Cc1cc(-c2ccn3nc(N)c(C(=O)N[C@H]4CCOC4)c3n2)cc2c1C(=O)N([C@@H](C)C1CC1)C2` gave a CLH in [1] of 130 mL/min/kg. The IC50 stood at 148 nM in series [6], 1.8 nM in series [7], 974 nM in series [3] and 598 nM in series [5]. The figures for the Ratio IC50 in the series filed under Homo sapiens [8] and in the series filed under Homo sapiens [9] were 580 and 352, respectively. The hepatocyte CLint at 0.5 µM in series [2] was found to be 9.35 µL/min/1e6 cells. Moreover, in [4], the hepatocyte intrinsic clearance turned out to be 13 µL/min.
Take `C[C@@H](C1CC1)N1Cc2cc(-c3ccn4nc(N)c(C(=O)NC5CC5)c4n3)cc(C3CC3)c2C1=O`: the IC50 was found to be 66 nM in series [6], 4.7 nM in series [7], 572 nM in series [3] and 829 nM in [5]. Also, the Ratio IC50 in the series listed under Homo sapiens [8] is 122; in the series filed under Homo sapiens [9], 178. The hepatocyte CLint at 0.5 µM in series [2] turned out to be 4.23 µL/min/1e6 cells. Besides, the hepatocyte intrinsic clearance in series [4] was determined as 2.97 µL/min. Also, the inhibition at 30 min, 10 µM against CYP3A4 came out at 38%.
With `Cc1cc(-c2ccn3ncc(C(=O)Nc4cnn(C)c4)c3n2)cc2c1C(=O)N([C@@H](C)C1CC1)C2`, the CLH in series [1] came out at 48.3 mL/min/kg. Moreover, the IC50 is 638 nM in series [6] and 34.1 nM in series [7]. Besides, in series [2], the hepatocyte CLint at 0.5 µM came out at 7.31 µL/min/1e6 cells. In addition, in [4], the hepatocyte intrinsic clearance turned out to be 12.2 µL/min. This compound also gave an inhibition at 30 min, 10 µM against CYP3A4 of 33%.
The compound `Cc1cc(-c2ccn3nc(N)c(C(=O)N[C@H]4CC[C@@](C)(O)CC4)c3n2)cc2c1C(=O)N([C@@H](C)C1CC1)C2` displayed a CLH in [1] of 33 mL/min/kg. In addition, the IC50 in series [6] is 102 nM; in series [7], 4.8 nM; in series [3] it was greater than 10000 nM; in series [5], greater than 10000 nM. Besides, the Ratio IC50 in the series filed under Homo sapiens [8] and in the series filed under Homo sapiens [9] was greater than 2090 throughout. In [2], the hepatocyte CLint at 0.5 µM was less than 1.2 µL/min/1e6 cells. The hepatocyte intrinsic clearance in series [4] was 11.6 µL/min.
The compound `Cc1cc(-c2ccn3nc(N)c(C(=O)Nc4cnn(C)c4)c3n2)cc2c1C(=O)N([C@@H](C)C1CC1)C2` returned a CLH in series [1] of 43.3 mL/min/kg. Also, the IC50 in series [6] was determined as 127 nM; in [7] it was 3.4 nM. In series [2], the hepatocyte CLint at 0.5 µM stood at 13.4 µL/min/1e6 cells. Also, the hepatocyte intrinsic clearance in series [4] turned out to be 12.2 µL/min. This compound displayed an inhibition at 30 min, 10 µM against CYP3A4 of 49%.
As for `C[C@@H](C1CC1)N1Cc2cc(-c3ccn4nc(N)c(C(=O)NC5CC5)c4n3)cc(NS(C)(=O)=O)c2C1=O`, in [1], the CLH was 12 mL/min/kg. Besides, the IC50 came out at 37 nM in series [6], 2.7 nM in series [7], 590 nM in series [3] and 417 nM in [5]. Moreover, the hepatocyte CLint at 0.5 µM in [2] was less than 1.2 µL/min/1e6 cells. Moreover, in the series listed under Homo sapiens [9], the Ratio IC50 amounted to 157. Also, in [4], the hepatocyte intrinsic clearance was less than 1.2 µL/min. Moreover, the inhibition at 30 min, 10 µM at CYP3A4 was 37%.
With `Cc1cc(-c2ccn3nc(N)c(C(=O)N[C@H]4C[C@H](O)C4)c3n2)cc2c1C(=O)N([C@@H](C)C1CC1)C2`, the CLH in [1] came out at 40 mL/min/kg. The hepatocyte CLint at 0.5 µM in series [2] turned out to be 11.3 µL/min/1e6 cells. The hepatocyte intrinsic clearance in series [4] was 15.7 µL/min. The same compound came in with an inhibition at 30 min, 10 µM against CYP3A4 of 14%.
`Cc1cc(-c2ccn3nc(N)c(-c4cnn(C)c4)c3n2)cc2c1C(=O)N([C@@H](C)C1CC1)C2` showed a CLH in series [1] of 21.7 mL/min/kg.
With `Cc1cc(-c2ccn3nc(N)c(C(=O)N[C@H]4CC[C@](C)(O)CC4)c3n2)cc2c1C(=O)N([C@@H](C)C1CC1)C2`, the CLH in series [1] amounted to 71.7 mL/min/kg. Further, the IC50 in [6] turned out to be 76 nM; in series [7] it was 3 nM; in [3], 240 nM; in series [5], 155 nM. For the same compound, the Ratio IC50 in the series filed under Homo sapiens [8] was 82; in the series filed under Homo sapiens [9] it was 53. Moreover, the hepatocyte CLint at 0.5 µM in series [2] was determined as 8.7 µL/min/1e6 cells. In addition, the hepatocyte intrinsic clearance in series [4] is 22.1 µL/min.

The term IC50 denotes the concentration that gives 50% inhibition. The term inhibition denotes how much of the control response was suppressed. Read a low inhibition as little suppression.
